# Laboratory results: publication PMC4995014, “Identification of ABC Transporter Interaction of a Novel Cyanoquinoline Radiotracer and Implications for Tumour Imaging by Positron Emission Tomography” (PLoS ONE, 2016)
# How the values were obtained:
# MCF7MX cells = test: SRB cell viability assay in MCF7MX cells (ABCG2 overexpressing); assay type: cell-based, human; details: for GI50: Homo sapiens, MCF7/MX, 72 h, SRB
# Procedure: (§1) Cell viability by the sulforhodamine B (SRB) assay was used to assess cell growth and cytotoxicity of test compounds [29]. Cells were seeded at densities of 3,500 to 5,000 cells per well in 96 well plates overnight and pre-treated for 1 h with ABC transporter modulators: 10 μM fumitremorgin C (FTC; in MCF7MX and MCF7 cells), or 0.3 μM of zosuquidar (in 3T3 and 3T3-MDR1). Cells were then treated with test compounds for 72 h, at 37°C. After drug treatment, cells were fixed by addition of 50% trichloroacetic acid (TCA), and the plates washed and dried to allow staining with 0.4% solution of sulforhodamine B (Sigma) in 1% acetic acid for 30 minutes. Excess dye was removed upon washing with 1% acetic acid. Plates were dried and bound protein was solubilised upon addition of 150 μL of 10 mM Tris base buffer. Absorbance was measured at 540 nm using Thermo Multiskan-Ex plate reader. Cell viability versus compound concentration curves were plotted as a percentage of control cells. The concentration of drug that gave 50% inhibition in cell growth (GI50) was extrapolated from these curves using the sigmoid curve fit with variable slope in Prism (GraphPad Prism version 5.01, GraphPad Software, San Diego California USA). Three to six replicate wells were used for each drug concentration and experiments were carried out on three separate occasions for each compound.
# 3T3 cells = test: SRB cell viability assay in 3T3 cells; assay type: cell-based; details: Mus musculus, NIH3T3, 72 h
# Procedure: as §1
# Caco2 transwell assay = assay type: in vitro ADME, human; details: human, Caco-2, with verapamil 10 mg/mL, pre-treatment for 1 h, pre-treatment with 10 mg/mL verapamil for 1 h; read-out: efflux ratio in the presence of verapamil
# Procedure: The caco2 transwell assay was performed to assess permeability. Cells were seeded at a density of 60,000 cells per well in 24 well transwell plates (Millipore, Billerica, Massachutsetts, USA), and maintained in DMEM supplemented with […] glucose (20% FBS, 1% penicillin/streptomycin, 1% glutamine) for 21 days at 37°C in 5% CO2. After 21 days the cells differentiate into enterocytes and express all three MDR proteins, ABCB1 and ABCG2 at the apical side and ABCC1 on the basal side. On day 21, cells were washed three times with Hank's Balanced Salt Solution (HBSS) (Fisher scientific, Loughborough, UK) and the trans-epithelial electric resistance (TERR) was measured using an Epithelial Voltohmmeter (EVOM) (World Precision Instruments, Sarasota, USA); only transwells with TERR of 400 Ω/cm^2 or above were used for the experiment. Cells were treated either at the apical (n = 3) or basal (n = 3) side of the transwell by addition of 10 μM of cyanoquinoline compound or 50 μM vinblastine prepared in a volume of 400 μL HBSS (compound added to apical well) or 800 μL of HBSS (added to basal well). When transport inhibitors FTC (10 μM) or zosuquidar (0.3 μM) were used, they were added to both the apical and basal wells 1 h prior to drug treatment. After 1 h pre-treatment the medium was removed and cells were treated with the compounds prepared in HBSS containing FTC or Zosuquidar.
# Plates were incubated in shaker incubator at 37°C and 60 rpm for 120 min. After incubation, 200 μL aliquots from the apical and the basal wells were collected and analysed using high performance liquid chromatography (HPLC). Samples were run on a Millipore Waters HPLC system which included a 717 plus autosampler and 2487 dual wavelength absorbance detector system. The stationary phase comprised of a Phenomenex Luna C18 reverse phase column (150 X 4.6 mm; 5 μm particle size). The mobile phase comprised water (0.1% TFA) and acetonitrile (0.1% TFA) (80:20 v/v) at a flow rate of 1 mL/min for all compounds except vinblastine. For vinblastine, the stationary phase comprised a Supelcosil LC-ABZ reverse phase column (5 × 4.6 mm; 5 μm particle size). The mobile phase comprised water (0.1% formic acid) and methanol (90:10 to 10:90 v/v gradient over 20 min). Peak areas corresponding to the compounds of interest were recorded. Using standard curves the areas under the curve were converted into concentrations of compound. The permeability coefficient (Papp) was calculated using the following equation [30]: Papp = (dQ/dt)/A C0, where A is the surface area of the transwell membrane in cm^2 (= 0.33 cm^2), C0 is the drug concentration in the donor chamber at time t = 0 and dQ/dt is the rate of transfer of the compound to the receiver chamber, determined from the slope of the graph concentration (dQ) versus time (dt). Papp values corresponding to absorption and secretion were assessed and used to calculate efflux ratio. Efflux ratio =(Papp B−A)/(Papp A−B) Where Papp A-B = Papp absorption and Papp B-A = Papp secretion.
# The integrity of the caco2 cell membrane was assessed for each well following the experiment by addition of a 100 μM solution of […] (Sigma) in HBSS to the apical side of the plate. The plates were placed in the shaker incubator for 1 h at 37°C and 60 rpm. Samples from the basal wells were transferred into a 96 well plate and the levels of […] were assessed by measuring with an excitation of 450 nm and an emission of 540 nm using the PerkinElmer Wallac 1420 counter.
smiles,measurement,setting,value
"CCOc1cc2ncc(C#N)c(Nc3ccc(F)c(Cl)c3)c2cc1NC(=O)/C=C/CNCc1cn(CCF)nn1 [FED6, (2E)-N-{4-[(3-chloro-4-fluorophenyl)amino]-3-cyano-7-ethoxyquinolin-6-yl}-4-({[1-(2-fluoroethyl)-1H-1,2,3-triazol-4-yl]methyl}amino)-but-2-enamide]",fold increase in GI50 in the ABCG2 overexpressing cell line,"MCF7MX cells; GI50 MCF7MX over GI50 MCF7, without FTC",6.3 fold
same,GI50,MCF7MX cells; 1 h pre-treatment with 10 μM FTC,37.9 ± 21.9 µM
same,GI50,MCF7MX cells; without FTC,75.9 ± 43.8 µM
same,GI50,3T3 cells; pre-treatment with 0.3 μM zosuquidar,7.8 ± 0.7 µM
same,GI50,3T3 cells; without zosuquidar,10.7 ± 1 µM
same,"efflux ratio at 120 min, 10 μM",Caco2 transwell assay,1.1
